Laboratory results as given in patent publication US20250262201A1, “COMPOUNDS AND METHODS USEFUL FOR STABILIZING PHENYLALANINE HYDROXYLASE MUTATIONS” (Agios Pharmaceuticals, Inc., priority 2022, published 2025).

Target: T1, human PAH with the R408W mutation (Homo sapiens, UniProt P00439, R408W)
T1 construct: expressed in transfected cells
T1 sequence (P00439 1-452 R408W): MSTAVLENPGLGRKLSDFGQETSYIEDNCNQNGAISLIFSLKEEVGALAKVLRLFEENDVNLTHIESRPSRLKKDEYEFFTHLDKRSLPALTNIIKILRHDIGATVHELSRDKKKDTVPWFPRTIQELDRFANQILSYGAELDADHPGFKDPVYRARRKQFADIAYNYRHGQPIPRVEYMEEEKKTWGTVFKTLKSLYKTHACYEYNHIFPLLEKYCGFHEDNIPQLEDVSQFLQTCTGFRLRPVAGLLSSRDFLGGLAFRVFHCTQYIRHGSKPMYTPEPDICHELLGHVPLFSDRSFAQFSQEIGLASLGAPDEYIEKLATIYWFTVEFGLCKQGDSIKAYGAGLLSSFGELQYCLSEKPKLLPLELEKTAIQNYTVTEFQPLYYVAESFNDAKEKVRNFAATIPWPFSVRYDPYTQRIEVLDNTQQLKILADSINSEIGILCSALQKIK
Experiment: Cell Based Phenylalanine Flux Assay
Details: A375 cells expressing human R408W PAH; 24 hrs compound incubation; 13C-Tyrosine by LC-MS; average where tested multiple times; read-out: AC50

| Compound | AC50 [µM] |
| --- | --- |
| O=C(c1nnc(-c2ccc(C(F)(F)F)cn2)o1)N1CCc2[nH]cnc2[C@@H]1c1ncc2ccccc2n1 [Example 169, (R)-(4-(quinazolin-2-yl)-6,7-dihydro-1H-imidazo[4,5-c]pyridin-5(4H)-yl)(5-(5-(trifluoromethyl)pyridin-2-yl)-1,3,4-oxadiazol-2-yl)methanone] | 1 to 5 |
| O=C(c1nnc(-c2ccc(C(F)(F)F)cn2)o1)N1CCc2[nH]cnc2[C@H]1c1ncc2ccccc2n1 [Example 170, (S)-(4-(quinazolin-2-yl)-6,7-dihydro-1H-imidazo[4,5-c]pyridin-5(4H)-yl)(5-(5-(trifluoromethyl)pyridin-2-yl)-1,3,4-oxadiazol-2-yl)methanone] | 0.5 to 1 |
| Cc1ccc(-c2nnc(C(=O)N3CCc4[nH]cnc4[C@H]3c3ncc4ccccc4n3)o2)nc1 [Example 171, (S)-(5-(5-methylpyridin-2-yl)-1,3,4-oxadiazol-2-yl)(4-(quinazolin-2-yl)-6,7-dihydro-1H-imidazo[4,5-c]pyridin-5(4H)-yl)methanone] | < 0.5 |
| Cc1ccc(-c2nnc(C(=O)N3CCc4[nH]cnc4[C@@H]3c3ncc4ccccc4n3)o2)nc1 [Example 172, (R)-(5-(5-methylpyridin-2-yl)-1,3,4-oxadiazol-2-yl)(4-(quinazolin-2-yl)-6,7-dihydro-1H-imidazo[4,5-c]pyridin-5(4H)-yl)methanone] | 1 to 5 |
| O=C(c1nnc(-c2cc(C(F)(F)F)ccn2)o1)N1CCc2[nH]cnc2[C@H]1c1ncc2ccccc2n1 [Example 173, (S)-(4-(quinazolin-2-yl)-6,7-dihydro-1H-imidazo[4,5-c]pyridin-5(4H)-yl)(5-(4-(trifluoromethyl)pyridin-2-yl)-1,3,4-oxadiazol-2-yl)methanone] | < 0.5 |
| O=C(c1nnc(-c2cc(C(F)(F)F)ccn2)o1)N1CCc2[nH]cnc2[C@@H]1c1ncc2ccccc2n1 [Example 174, (R)-(4-(quinazolin-2-yl)-6,7-dihydro-1H-imidazo[4,5-c]pyridin-5(4H)-yl)(5-(4-(trifluoromethyl)pyridin-2-yl)-1,3,4-oxadiazol-2-yl)methanone] | 1 to 5 |
| COc1ccc(-c2nnc(C(=O)N3CCc4[nH]cnc4[C@H]3c3ncc4ccccc4n3)o2)nc1 [Example 181, (S)-(5-(5-methoxypyridin-2-yl)-1,3,4-oxadiazol-2-yl)(4-(quinazolin-2-yl)-6,7-dihydro-1H-imidazo[4,5-c]pyridin-5(4H)-yl)methanone] | < 0.5 |
| COc1ccc(-c2nnc(C(=O)N3CCc4[nH]cnc4[C@@H]3c3ncc4ccccc4n3)o2)nc1 [Example 182, (R)-(5-(5-methoxypyridin-2-yl)-1,3,4-oxadiazol-2-yl)(4-(quinazolin-2-yl)-6,7-dihydro-1H-imidazo[4,5-c]pyridin-5(4H)-yl)methanone] | 1 to 5 |
| Cn1ncnc1C(=O)N1CCc2[nH]cnc2[C@@H]1c1ncc2ccccc2n1 [Example 183, (R)-(1-methyl-1H-1,2,4-triazol-5-yl)(4-(quinazolin-2-yl)-6,7-dihydro-1H-imidazo[4,5-c]pyridin-5(4H)-yl)methanone] | 1 to 5 |
| Cn1ncnc1C(=O)N1CCc2[nH]cnc2[C@H]1c1ncc2ccccc2n1 [Example 184, (S)-(1-methyl-1H-1,2,4-triazol-5-yl)(4-(quinazolin-2-yl)-6,7-dihydro-1H-imidazo[4,5-c]pyridin-5(4H)-yl)methanone] | < 0.5 |
| O=C(c1nnc(-c2ccn(C(F)F)n2)o1)N1CCc2[nH]cnc2[C@H]1c1ncc2ccccc2n1 [Example 189, (S)-(5-(1-(difluoromethyl)-1H-pyrazol-3-yl)-1,3,4-oxadiazol-2-yl)(4-(quinazolin-2-yl)-6,7-dihydro-1H-imidazo[4,5-c]pyridin-5(4H)-yl)methanone] | < 0.5 |

Now from value to compound:

| AC50 [µM] | Compound |
| --- | --- |
| < 0.5 | O=C(c1nnc(-c2ccc(F)cn2)o1)N1CCc2[nH]cnc2[C@H]1c1ncc2ccccc2n1 [Example 168, (S)-(5-(5-fluoropyridin-2-yl)-1,3,4-oxadiazol-2-yl)(4-(quinazolin-2-yl)-6,7-dihydro-1H-imidazo[4,5-c]pyridin-5(4H)-yl)methanone] |
| 0.5 to 1 | O=C(c1nnc(-c2cc[nH]n2)o1)N1CCc2[nH]cnc2[C@H]1c1ncc2ccccc2n1 [Example 175, (S)-(5-(1H-pyrazol-3-yl)-1,3,4-oxadiazol-2-yl)(4-(quinazolin-2-yl)-6,7-dihydro-1H-imidazo[4,5-c]pyridin-5(4H)-yl)methanone] |
| > 5 | O=C(c1nnc(-c2cc[nH]n2)o1)N1CCc2[nH]cnc2[C@@H]1c1ncc2ccccc2n1 [Example 176, (R)-(5-(1H-pyrazol-3-yl)-1,3,4-oxadiazol-2-yl)(4-(quinazolin-2-yl)-6,7-dihydro-1H-imidazo[4,5-c]pyridin-5(4H)-yl)methanone] |
| < 0.5 | O=C(c1nnc(-c2cccnc2)o1)N1CCc2[nH]cnc2[C@H]1c1ncc2ccccc2n1 [Example 177, (S)-(5-(pyridin-3-yl)-1,3,4-oxadiazol-2-yl)(4-(quinazolin-2-yl)-6,7-dihydro-1H-imidazo[4,5-c]pyridin-5(4H)-yl)methanone] |
| 1 to 5 | O=C(c1nnc(-c2cccnc2)o1)N1CCc2[nH]cnc2[C@@H]1c1ncc2ccccc2n1 [Example 178, (R)-(5-(pyridin-3-yl)-1,3,4-oxadiazol-2-yl)(4-(quinazolin-2-yl)-6,7-dihydro-1H-imidazo[4,5-c]pyridin-5(4H)-yl)methanone] |
| < 0.5 | O=C(c1nnc(-c2ccncc2)o1)N1CCc2[nH]cnc2[C@H]1c1ncc2ccccc2n1 [Example 179, (S)-(5-(pyridin-4-yl)-1,3,4-oxadiazol-2-yl)(4-(quinazolin-2-yl)-6,7-dihydro-1H-imidazo[4,5-c]pyridin-5(4H)-yl)methanone] |
| > 5 | O=C(c1nnc(-c2ccncc2)o1)N1CCc2[nH]cnc2[C@@H]1c1ncc2ccccc2n1 [Example 180, (R)-(5-(pyridin-4-yl)-1,3,4-oxadiazol-2-yl)(4-(quinazolin-2-yl)-6,7-dihydro-1H-imidazo[4,5-c]pyridin-5(4H)-yl)methanone] |
| < 0.5 | O=C(c1nnc(-c2cnn(C(F)F)c2)o1)N1CCc2[nH]cnc2[C@H]1c1ncc2ccccc2n1 [Example 185, (S)-(5-(1-(difluoromethyl)-1H-pyrazol-4-yl)-1,3,4-oxadiazol-2-yl)(4-(quinazolin-2-yl)-6,7-dihydro-1H-imidazo[4,5-c]pyridin-5(4H)-yl)methanone] |
| > 5 | O=C(c1nnc(-c2cnn(C(F)F)c2)o1)N1CCc2[nH]cnc2[C@@H]1c1ncc2ccccc2n1 [Example 186, (R)-(5-(1-(difluoromethyl)-1H-pyrazol-4-yl)-1,3,4-oxadiazol-2-yl)(4-(quinazolin-2-yl)-6,7-dihydro-1H-imidazo[4,5-c]pyridin-5(4H)-yl)methanone] |
| < 0.5 | O=C(c1nnc(-c2cnn(C3CCC3)c2)o1)N1CCc2[nH]cnc2[C@H]1c1ncc2ccccc2n1 [Example 187, (S)-(5-(1-cyclobutyl-1H-pyrazol-4-yl)-1,3,4-oxadiazol-2-yl)(4-(quinazolin-2-yl)-6,7-dihydro-1H-imidazo[4,5-c]pyridin-5(4H)-yl)methanone] |
| 1 to 5 | O=C(c1nnc(-c2cnn(C3CCC3)c2)o1)N1CCc2[nH]cnc2[C@@H]1c1ncc2ccccc2n1 [Example 188, (R)-(5-(1-cyclobutyl-1H-pyrazol-4-yl)-1,3,4-oxadiazol-2-yl)(4-(quinazolin-2-yl)-6,7-dihydro-1H-imidazo[4,5-c]pyridin-5(4H)-yl)methanone] |
